Results on 19 molecules are retold here after patent publication US9403810B2, “Carboxamide derivatives” (Novartis AG, priority 2014, dated 2016).

The target of this assay is Smurf-1 (Homo sapiens (Human), UniProt Q9HCE7). Put plainly: HECT E3 ligase autoubiquitinylation TR-FRET assay (Smurf-1). It is filed as biochemical. As to conditions: 8-point dose-response curve, 3 nM to 10 uM; 45 min incubation. The text has this:
To determine the HECT E3 ligase selectivity of the compounds, a panel of biochemical HECT E3 ligase autoubiquitinylation assays was employed (Smurf-1, Smurf-2, WWP1, WWP2, ITCH, Nedd4, Nedd4L and E6AP). The conjugation of ubiquitin to a protein substrate is a multistep process. In an initial ATP-requiring step, a thioester bond is formed between the carboxyl terminus of ubiquitin and an internal cystein residue of the ubiquitin-activating enzyme (E1). Activated ubiquitin is then transferred to a specific cystein residue of an ubiquitin-conjugating enzyme (E2). E2s donate ubiquitin to a HECT E3 ligase (E3) from which it is transferred to the substrate protein. HECT E3 ligases can auto-ubiquitinylate. This event is detected in the TR-FRET (Time-Resolved Fluorescence Resonance Energy Transfer) assay used in this panel. The reaction mix contains E1, E2, tagged-E3, biotin-conjugated ubiquitin, the compound and ATP in a suitable buffer and is incubated for 45 minutes to allow auto-ubiquitinylation of the E3 ligase. To measure the extent of ubiquitinylated E3 ligase by TR-FRET, the donor fluorophore Europium cryptate (Eu3+ cryptate), conjugated to streptavidin which subsequently binds to biotinylated ubiquitin, and the modified allophycocyanin XL665 (HTRF® primary acceptor fluorophore) coupled to a tag-specific antibody (HA, His or GST), which recognizes the respective E3 ligase fusion proteins, are added after the reaction is complete. When these two fluorophores are brought together by a bimolecular interaction (in this case ubiquitinylation of the E3 ligase), a portion of the energy captured by the Cryptate during excitation is released through fluorescence emission at 620 nm, while the remaining energy is transferred to XL665. This energy is then released by XL665 as specific fluorescence at 665 nm. Light at 665 nm is emitted only through FRET with Europium.
Test and reference compounds are prepared at 180× [final] in 90% DMSO, and diluted 1:3 in 90% DMSO.
For the biochemical assay panel, 50 nl of the test compounds, reference compounds and buffer/DMSO control are transferred to the respective wells of a 384-well white GREINER “SMALL VOLUME” PS plate. The assay panel is run at room temperature on a Biomek FX liquid handling workstation. To the assay plates containing 50 nl compound or control solutions in 90% DMSO, 4.5 ul of E3 ligase solution were added per well, followed by 4.5 ul of the pre-incubated E1/E2/Ub mix or the pre-diluted ubiquitin (LOW control). Plates are shaken vigorously after each addition. In this assay the compound concentrations range from 3 nM to 10 uM in an 8-point dose-response curve.
After an incubation time of 45 min in the dark, the plates are transferred into the Pherastar fluorescence reader to measure the TR-FRET signal.
On the technique in general: In TR-FRET formats the signal depends on donor and acceptor labels being close together.

Sequence of Smurf-1 (Q9HCE7 whole entry): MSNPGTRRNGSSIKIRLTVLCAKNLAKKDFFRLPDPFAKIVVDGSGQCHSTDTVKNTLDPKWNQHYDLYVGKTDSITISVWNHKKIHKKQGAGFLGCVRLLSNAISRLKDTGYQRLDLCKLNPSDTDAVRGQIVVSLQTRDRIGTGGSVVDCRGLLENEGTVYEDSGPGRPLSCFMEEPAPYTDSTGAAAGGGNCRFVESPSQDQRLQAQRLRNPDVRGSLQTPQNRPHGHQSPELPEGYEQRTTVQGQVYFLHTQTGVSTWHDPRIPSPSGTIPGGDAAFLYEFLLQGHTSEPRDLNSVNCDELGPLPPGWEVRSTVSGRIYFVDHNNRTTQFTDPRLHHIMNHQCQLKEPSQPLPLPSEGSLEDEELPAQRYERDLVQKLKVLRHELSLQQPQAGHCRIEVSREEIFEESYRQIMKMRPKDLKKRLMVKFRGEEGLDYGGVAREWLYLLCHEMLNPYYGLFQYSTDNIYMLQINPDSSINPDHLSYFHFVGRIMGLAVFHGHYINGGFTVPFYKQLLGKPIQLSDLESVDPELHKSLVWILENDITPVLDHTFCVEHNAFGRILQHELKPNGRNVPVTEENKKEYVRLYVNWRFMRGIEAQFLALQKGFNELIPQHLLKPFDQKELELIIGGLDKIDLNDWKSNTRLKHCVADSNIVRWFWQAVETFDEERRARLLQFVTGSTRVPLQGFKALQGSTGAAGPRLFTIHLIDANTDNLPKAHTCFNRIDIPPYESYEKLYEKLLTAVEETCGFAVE

The IC50 is the midpoint of a concentration-inhibition curve. A higher IC50 goes with weaker potency in that assay. `Cc1c(C(=O)Nc2c(C)n(C)n(C3CCCCC3)c2=O)noc1C1=CCCCCC1` [Example 1.6, 5-(Cyclohept-1-en-1-yl)-N-(2-cyclohexyl-1,5-dimethyl-3-oxo-2,3-dihydro-1H-pyrazol-4-yl)-4-methylisoxazole-3-carboxamide]: the midpoint of inhibition, the IC50, lay at 0.008 µM. As for `Cc1c(C(=O)Nc2c(C)n(C)n(C3CCCCC3)c2=O)noc1C1=CCC(C(F)(F)F)CC1` (stereo not shown) [Example 1.7, N-(2-Cyclohexyl-1,5-dimethyl-3-oxo-2,3-dihydro-1H-pyrazol-4-yl)-4-methyl-5-(4-(trifluoromethyl)cyclohex-1-en-1-yl)isoxazole-3-carboxamide], half-maximal inhibition (IC50) required 0.033 µM. Consider `Cc1c(C(=O)Nc2c(C)n(C)n(C3CCCCC3)c2=O)noc1C1=CCC2(CCCC2)CC1` [Example 2, N-(2-Cyclohexyl-1,5-dimethyl-3-oxo-2,3-dihydro-1H-pyrazol-4-yl)-4-methyl-5-(spiro[4.5]dec-7-en-8-yl)isoxazole-3-carboxamide], for which the IC50 came out at 0.0025 µM. Take `Cc1c(C(=O)Nc2c(C)n(C)n(C3CCCCC3)c2=O)noc1C1=CCC2(CCCO2)CC1` (stereo not shown) [Example 2.1, N-(2-Cyclohexyl-1,5-dimethyl-3-oxo-2,3-dihydro-1H-pyrazol-4-yl)-4-methyl-5-(1-oxaspiro[4.5]dec-7-en-8-yl)isoxazole-3-carboxamide]: the IC50 came to 0.064 µM. As for `Cc1c(C(=O)Nc2c(C)n(C)n(C3CCCCC3)c2=O)noc1C1=CCC(C)(C)CC1` [Example 2.2, N-(2-Cyclohexyl-1,5-dimethyl-3-oxo-2,3-dihydro-1H-pyrazol-4-yl)-5-(4,4-dimethylcyclohex-1-en-1-yl)-4-methylisoxazole-3-carboxamide], the figure is 0.0009 µM. In the case of `Cc1c(C(=O)Nc2c(C)n(C)n(C3CCCCC3)c2=O)noc1C1=CCC(C)(C)C1` [Example 3, N-(2-Cyclohexyl-1,5-dimethyl-3-oxo-2,3-dihydro-1H-pyrazol-4-yl)-5-(4,4-dimethylcyclopent-1-en-1-yl)-4-methylisoxazole-3-carboxamide] it was 0.006 µM; in that of `Cc1c(C(=O)Nc2c(C)n(C)n(C3CCCCC3)c2=O)noc1C1=CCC2(CCOC2)CC1` (stereo not shown) [Example 4, N-(2-Cyclohexyl-1,5-dimethyl-3-oxo-2,3-dihydro-1H-pyrazol-4-yl)-4-methyl-5-(2-oxaspiro[4.5]dec-7-en-8-yl)isoxazole-3-carboxamide], 0.1 µM; in that of `Cc1c(C(=O)Nc2c(C)n(C)n(C3CCCCC3)c2=O)noc1C1=CCC(OC(C)C)CC1` (stereo not shown) [Example 5, N-(2-Cyclohexyl-1,5-dimethyl-3-oxo-2,3-dihydro-1H-pyrazol-4-yl)-5-(4-isopropoxycyclohex-1-en-1-yl)-4-methylisoxazole-3-carboxamide], 0.31 µM.

`Cc1c(C(=O)Nc2c(C)n(C)n(C3CCCCC3)c2=O)noc1C1CCC(C)(C)CC1` [Example 6, N-(2-Cyclohexyl-1,5-dimethyl-3-oxo-2,3-dihydro-1H-pyrazol-4-yl)-5-(4,4-dimethylcyclohexyl)-4-methylisoxazole-3-carboxamide] displayed an IC50 of 0.0057 µM. In the case of `Cc1c(C(=O)Nc2c(C)n(C)n(C3CCCCC3)c2=O)noc1C1CCC(C)(C)C1` (stereo not shown) [Example 6.1, N-(2-Cyclohexyl-1,5-dimethyl-3-oxo-2,3-dihydro-1H-pyrazol-4-yl)-5-(3,3-dimethylcyclopentyl)-4-methylisoxazole-3-carboxamide] it was 0.023 µM; in that of `Cc1c(C(=O)Nc2c(C)n(C)n(C3CCCCC3)c2=O)noc1CCC(C)(C)C` [Example 7, N-(2-Cyclohexyl-1,5-dimethyl-3-oxo-2,3-dihydro-1H-pyrazol-4-yl)-5-(3,3-dimethylbutyl)-4-methylisoxazole-3-carboxamide], 0.019 µM.

`Cc1c(C(=O)Nc2c(C)n(C)n(C3CCCCC3)c2=O)noc1/C=C\C(C)(C)C` [Example 8, (Z)—N-(2-Cyclohexyl-1,5-dimethyl-3-oxo-2,3-dihydro-1H-pyrazol-4-yl)-5-(3,3-dimethylbut-1-en-1-yl)-4-methylisoxazole-3-carboxamide]: the IC50 was 0.046 µM. `Cc1c(C(=O)Nc2c(C)n(C)n(C3CCCCC3)c2=O)noc1/C=C/C(C)(C)C` [Example 9, (E)-N-(2-Cyclohexyl-1,5-dimethyl-3-oxo-2,3-dihydro-1H-pyrazol-4-yl)-5-(3,3-dimethylbut-1-en-1-yl)-4-methylisoxazole-3-carboxamide]: the IC50 was 0.058 µM.

`Cc1c(C(=O)Nc2c(C)n(C)n(C3CCCCC3)c2=O)noc1C1CCCCC1` [Example 10, 5-Cyclohexyl-N-(2-cyclohexyl-1,5-dimethyl-3-oxo-2,3-dihydro-1H-pyrazol-4-yl)-4-methylisoxazole-3-carboxamide] displayed an IC50 of 0.05 µM. The IC50 values of the last two molecules are within 1.5-fold of each other. In the case of `Cc1c(C(=O)Nc2c(C)n(C)n(C3CCCCC3)c2=O)noc1C1CCC2(CC1)OCCO2` [Example 11, N-(2-Cyclohexyl-1,5-dimethyl-3-oxo-2,3-dihydro-1H-pyrazol-4-yl)-4-methyl-5-(1,4-dioxaspiro[4.5]decan-8-yl)isoxazole-3-carboxamide], half-maximal inhibition (IC50) required 0.42 µM. `Cc1c(C(=O)Nc2c(C)n(C)n(C3CCCCC3)c2=O)noc1[C@@H]1OCC(C)(C)O[C@H]1C` [Example 20, N-(2-Cyclohexyl-1,5-dimethyl-3-oxo-2,3-dihydro-1H-pyrazol-4-yl)-4-methyl-5-((2R,3S)-3,5,5-trimethyl-1,4-dioxan-2-yl)isoxazole-3-carboxamide]: the IC50 amounted to 0.18 µM. As for `Cc1c(C(=O)Nc2c(C)n(C)n(C3CCCCC3)c2=O)noc1C1CC(Br)C(C)CO1` (stereo not shown) [Example 21.1, 5-(4-Bromo-5-methyltetrahydro-2H-pyran-2-yl)-N-(2-cyclohexyl-1,5-dimethyl-3-oxo-2,3-dihydro-1H-pyrazol-4-yl)-4-methylisoxazole-3-carboxamide], half-maximal inhibition (IC50) was put at 0.63 µM. In turn, `CC1=CCC(c2onc(C(=O)Nc3c(C)n(C)n(C4CCCCC4)c3=O)c2C)OC1` (stereo not shown) [Example 21.2, N-(2-cyclohexyl-1,5-dimethyl-3-oxo-2,3-dihydro-1H-pyrazol-4-yl)-4-methyl-5-(5-methyl-3,6-dihydro-2H-pyran-2-yl)isoxazole-3-carboxamide] returned a concentration for half-maximal inhibition (IC50) of 0.49 µM. The IC50 values of the last two molecules are within 1.5-fold of each other.

As to `Cc1c(C(=O)Nc2c(C)n(C)n(C3CCCCC3)c2=O)noc1C1OCC(C)(C)CO1` [Example 26, N-(2-Cyclohexyl-1,5-dimethyl-3-oxo-2,3-dihydro-1H-pyrazol-4-yl)-5-(5,5-dimethyl-1,3-dioxan-2-yl)-4-methylisoxazole-3-carboxamide], inhibition was half-maximal at 0.58 µM (IC50).
